Results reported in patent US11161850B2, “Fused pyrazine derivatives as A2A / A2B inhibitors” (Incyte Corporation, priority 2018, dated 2021).
Read-outs that look alike come from different tables or passages of the source.

Legend:
Adenosine A2A = Adenosine A2A (Homo sapiens (Human), UniProt P29274); assay: A2A Tag-Lite HTRF assay; assay type: binding
From the text: Example C. A2A Tag-Lite® HTRF Assay

[1] = molecular target: human adenosine A2B receptor (Homo sapiens (Human), UniProt P29275); assay: Adenosine A2B Receptor Cyclic AMP GS Assay; assay type: cell-based; conditions: HEK-293 cells expressing human A2B, agonist NECA 12 nM
Sequence of human adenosine A2B receptor (P29275 whole entry): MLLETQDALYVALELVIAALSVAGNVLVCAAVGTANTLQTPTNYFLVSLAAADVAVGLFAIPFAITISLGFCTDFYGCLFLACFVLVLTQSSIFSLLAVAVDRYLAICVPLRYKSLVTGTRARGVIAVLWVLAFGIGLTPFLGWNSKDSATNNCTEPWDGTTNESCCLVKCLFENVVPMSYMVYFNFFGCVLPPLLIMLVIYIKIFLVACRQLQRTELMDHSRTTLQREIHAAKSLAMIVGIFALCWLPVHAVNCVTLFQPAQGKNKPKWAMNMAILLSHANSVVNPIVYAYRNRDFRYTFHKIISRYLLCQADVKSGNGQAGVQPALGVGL
Protocol: Example B. Adenosine A2B Receptor Cyclic AMP GS Assay
Stably transfected HEK-293 cells expressing the human adenosine A2B receptor (Perkin Elmer) were maintained in MEM culture medium with 10% FBS and 100 μg/mL Geneticin (Life Technologies). 18 to 24 hours prior to assay, geneticin was removed from culture. The cisbio cAMP-GS Dynamic kit utilizing the FRET (Fluorescence Resonance Energy Transfer) technology was used to measure cAMP accumulation in the cells. Compounds of the present disclosure at an appropriate concentration were mixed with 10000 cells/well in white 96 well half area plates (Perkin Elmer) for 30 min at room temperature gently shaking. Agonist, NECA (R&D Technologies) at 12 nM was added to each well for 60 min at room temperature gently shaking. Detection reagents, d2-labeled cAMP (acceptor) and anti-cAMP cryptate (donor) were added to each well for 60 min at rt gently shaking. Plates were read on Pherastar (BMG Labtech), fluorescence ratio 665/620 was calculated and EC50 determination was performed by fitting the curve of percent of control versus the log of the compound concentration using GraphPad Prism.

[2] = Tag-Lite Adenosine A2A labeled cells, fluorescent ligand 12.5 nM, read-out: A2A_Ki
[3] = read-out: A2A_Ki, Tag-Lite Adenosine A2A labeled cells, fluorescent ligand 12.5 nM

Sequence of Adenosine A2A (P29274 whole entry): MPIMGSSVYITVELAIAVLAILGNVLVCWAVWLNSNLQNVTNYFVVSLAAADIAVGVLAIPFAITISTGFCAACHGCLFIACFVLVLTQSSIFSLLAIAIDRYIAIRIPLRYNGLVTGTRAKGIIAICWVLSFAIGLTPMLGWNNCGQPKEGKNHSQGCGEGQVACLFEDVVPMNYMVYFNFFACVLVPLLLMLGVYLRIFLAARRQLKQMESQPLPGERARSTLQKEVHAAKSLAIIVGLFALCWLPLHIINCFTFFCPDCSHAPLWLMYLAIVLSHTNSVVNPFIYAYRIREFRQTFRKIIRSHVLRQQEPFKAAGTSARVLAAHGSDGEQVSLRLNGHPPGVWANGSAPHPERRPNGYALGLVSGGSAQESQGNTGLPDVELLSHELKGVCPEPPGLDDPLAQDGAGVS

SMILES: CN1CCC2(CN(Cc3cccc(F)c3Cc3nc4c(N)nc(-c5cccc(C#N)c5F)cn4n3)C2)C1=O [Example 85, 3-(8-amino-2-(2-fluoro-6-((6-methyl-5-oxo-2,6-diazaspiro[3.4]octan-2-yl)methyl)benzyl)-[1,2,4]triazolo[1,5-a]pyrazin-6-yl)-2-fluorobenzonitrile]
- Ki (Adenosine A2A; [2]): < 10 nM
- EC50 ([1]; A2B_cAMP_EC50 (nM)): 10 to 100 nM

SMILES: Cn1cc(-c2c(-c3cccc(C#N)c3F)nc(N)c3nc(Cc4ccccn4)nn23)ccc1=O [Example 89, 3-(8-amino-5-(1-methyl-6-oxo-1,6-dihydropyridin-3-yl)-2-(pyridin-2-ylmethyl)-[1,2,4]triazolo[1,5-a]pyrazin-6-yl)-2-fluorobenzonitrile]
- Ki (Adenosine A2A; [2]): < 10 nM
- EC50 ([1]; A2B_cAMP_EC50 (nM)): 10 to 100 nM

SMILES: CNC(c1nc2c(N)nc(-c3cccc(C#N)c3)c(-c3ocnc3C)n2n1)c1c(F)cccc1F (stereo not shown) [Example 78, 3-(8-amino-2-((2,6-difluorophenyl)(methylamino)methyl)-5-(4-methyloxazol-5-yl)-[1,2,4]triazolo[1,5-a]pyrazin-6-yl)benzonitrile]
- Ki (Adenosine A2A; [2]): < 10 nM
- EC50 ([1]; A2B_cAMP_EC50 (nM)): < 10 nM

SMILES: N#Cc1cccc(-c2cn3nc(Cc4c(F)cccc4-c4cnn(CC(=O)N5CC(O)C5)c4)nc3c(N)n2)c1F [Example 118, 3-(8-amino-2-(2-fluoro-6-(1-(2-(3-hydroxyazetidin-1-yl)-2-oxoethyl)-1H-pyrazol-4-yl)benzyl)-[1,2,4]triazolo[1,5-a]pyrazin-6-yl)-2-fluorobenzonitrile]
- Ki (Adenosine A2A; [2]): < 10 nM
- EC50 ([1]; A2B_cAMP_EC50 (nM)): < 10 nM

SMILES: Cc1nc(C(C)O)c(-c2c(-c3cccc(C#N)c3)nc(N)c3cc(Cc4ccccn4)nn23)o1 (stereo not shown) [Example 34, 3-(4-Amino-7-(4-(1-hydroxyethyl)-2-methyloxazol-5-yl)-2-(pyridin-2-ylmethyl)pyrazolo[1,5-a]pyrazin-6-yl)benzonitrile]
- Ki (Adenosine A2A; [2]): < 10 nM
- EC50 ([1]; A2B_cAMP_EC50 (nM)): 10 to 100 nM

SMILES: N#Cc1cccc(-c2nc(N)c3nc(Cc4cccn5ccnc45)nn3c2-c2ccncn2)c1 [Example 45, 3-(8-Amino-2-(imidazo[1,2-a]pyridin-8-ylmethyl)-5-(pyrimidin-4-yl)-[1,2,4]triazolo[1,5-a]pyrazin-6-yl)benzonitrile]
- Ki (Adenosine A2A; [2]): < 10 nM
- EC50 ([1]; A2B_cAMP_EC50 (nM)): < 10 nM

SMILES: Cc1ncoc1-c1c(-c2cccc(C#N)c2)nc(N)c2nc(C(N)c3c(F)cccc3F)nn12 (stereo not shown) [Example 77, 3-(8-amino-2-(amino(2,6-difluorophenyl)methyl)-5-(4-methyloxazol-5-yl)-[1,2,4]triazolo[1,5-a]pyrazin-6-yl)benzonitrile]
- Ki (Adenosine A2A; [2]): < 10 nM
- EC50 ([1]; A2B_cAMP_EC50 (nM)): < 10 nM

SMILES: CN1CCN(c2cc(-c3cc4c(N)nc(-c5cccc(C#N)c5)c(-c5ccncc5)n4n3)ccn2)CC1 [Example 26, 3-(4-Amino-2-(2-(4-methylpiperazin-1-yl)pyridin-4-yl)-7-(pyridin-4-yl)pyrazolo[1,5-a]pyrazin-6-yl)benzonitrile]
- Ki (Adenosine A2A; [2]): < 10 nM
- EC50 ([1]; A2B_cAMP_EC50 (nM)): 10 to 100 nM

SMILES: N#Cc1cccc(-c2nc(N)c3nc(C(O)c4cc(F)ccc4F)nn3c2-c2ccncn2)c1 (single isomer, unassigned) [Example 52, 3-(8-Amino-2-((2,5-difluorophenyl)(hydroxy)methyl)-5-(pyrimidin-4-yl)-[1,2,4]triazolo[1,5-a]pyrazin-6-yl)benzonitrile]
- Ki (Adenosine A2A; [3]): < 10 nM
- EC50 ([1]; read-out: A2B_cAMP_EC50): < 10 nM

SMILES: Cc1cnccc1-c1c(-c2cccc(C#N)c2)nc(N)c2nc(C(O)c3c(F)cccc3F)nn12 (single isomer, unassigned) [Example 109, 3-(8-amino-2-((2,6-difluorophenyl)(hydroxy)methyl)-5-(3-methylpyridin-4-yl)-[1,2,4]triazolo[1,5-a]pyrazin-6-yl)benzonitrile]
- Ki (Adenosine A2A; [3]): < 10 nM
- EC50 ([1]; read-out: A2B_cAMP_EC50): < 10 nM

SMILES: CC(=O)N1CCC(Cc2cccc(F)c2Cc2nc3c(N)nc(-c4cccc(C#N)c4F)cn3n2)CC1 [Example 91, 3-(2-(2-((1-acetylpiperidin-4-yl)methyl)-6-fluorobenzyl)-8-amino-[1,2,4]triazolo[1,5-a]pyrazin-6-yl)-2-fluorobenzonitrile]
- Ki (Adenosine A2A; [2]): < 10 nM
- EC50 ([1]; A2B_cAMP_EC50 (nM)): 10 to 100 nM

SMILES: CN1CCC2(CN(Cc3cccc(F)c3Cc3nc4c(N)nc(-c5cccc(C#N)c5)c(-c5ccncn5)n4n3)C2)C1=O [Example 66, 3-(8-amino-2-(2-fluoro-6-((6-methyl-5-oxo-2,6-diazaspiro[3.4]octan-2-yl)methyl)benzyl)-5-(pyrimidin-4-yl)-[1,2,4]triazolo[1,5-a]pyrazin-6-yl)benzonitrile]
- Ki (Adenosine A2A; [2]): < 10 nM
- EC50 ([1]; A2B_cAMP_EC50 (nM)): < 10 nM

SMILES: Cn1cc(-c2cccnc2Cc2nc3c(N)nc(-c4cccc(C#N)c4)c(-c4ccncn4)n3n2)cn1 [Example 122, 3-(8-Amino-2-((3-(1-methyl-1H-pyrazol-4-yl)pyridin-2-yl)methyl)-5-(pyrimidin-4-yl)-[1,2,4]triazolo[1,5-a]pyrazin-6-yl)benzonitrile]
- Ki (Adenosine A2A; [2]): < 10 nM
- EC50 ([1]; A2B_cAMP_EC50 (nM)): 10 to 100 nM

SMILES: Cn1cc(-c2c(-c3cccc(C#N)c3)nc(N)c3nc(Cc4ccccn4)nn23)ccc1=O [Example 28, 3-(8-Amino-5-(1-methyl-6-oxo-1,6-dihydropyridin-3-yl)-2-(pyridin-2-ylmethyl)-[1,2,4]triazolo[1,5-a]pyrazin-6-yl)benzonitrile]
- Ki (Adenosine A2A; [2]): < 10 nM
- EC50 ([1]; A2B_cAMP_EC50 (nM)): 10 to 100 nM

SMILES: N#Cc1cccc(-c2nc(N)c3cc(C4=CCOCC4)nn3c2-c2ccncn2)c1 [Example 24, 3-(4-Amino-2-(3,6-dihydro-2H-pyran-4-yl)-7-(pyrimidin-4-yl)pyrazolo[1,5-a]pyrazin-6-yl)benzonitrile]
- Ki (Adenosine A2A; [2]): < 10 nM
- EC50 ([1]; A2B_cAMP_EC50 (nM)): 10 to 100 nM

SMILES: N#Cc1cccc(-c2cn3nc(Cc4ccccn4)cc3c(N)n2)c1 [Example 16, 3-(4-Amino-2-(pyridin-2-ylmethyl)pyrazolo[1,5-a]pyrazin-6-yl)benzonitrile]
- Ki (Adenosine A2A; [2]): < 10 nM
- EC50 ([1]; A2B_cAMP_EC50 (nM)): < 10 nM

SMILES: N#Cc1cccc(-c2cn3nc(Cc4c(F)cccc4-c4cnn(CC(N)=O)c4)nc3c(N)n2)c1F [Example 115, 2-(4-(2-((8-amino-6-(3-cyano-2-fluorophenyl)-[1,2,4]triazolo[1,5-a]pyrazin-2-yl)methyl)-3-fluorophenyl)-1H-pyrazol-1-yl)acetamide]
- Ki (Adenosine A2A; [2]): < 10 nM
- EC50 ([1]; A2B_cAMP_EC50 (nM)): < 10 nM

SMILES: Cn1cc(-c2ccccc2Cc2nc3c(N)nc(-c4cccc(C#N)c4)c(-c4ccncn4)n3n2)cn1 [Example 41, 3-(8-Amino-2-(2-(1-methyl-1H-pyrazol-4-yl)benzyl)-5-(pyrimidin-4-yl)-[1,2,4]triazolo[1,5-a]pyrazin-6-yl)benzonitrile]
- Ki (Adenosine A2A; [2]): < 10 nM
- EC50 ([1]; A2B_cAMP_EC50 (nM)): < 10 nM

SMILES: N#Cc1cccc(-c2nc(N)c3cc(Cc4ccccn4)nn3c2-c2ccncn2)c1 [Example 17, 3-(4-Amino-2-(pyridin-2-ylmethyl)-7-(pyrimidin-4-yl)pyrazolo[1,5-a]pyrazin-6-yl)benzonitrile]
- Ki (Adenosine A2A; [2]): < 10 nM
- EC50 ([1]; A2B_cAMP_EC50 (nM)): < 10 nM

SMILES: Cc1ncoc1-c1c(-c2cccc(C#N)c2)nc(N)c2nc(C(O)c3ccccn3)nn12 (racemic) [Example 40, 3-(8-Amino-2-(hydroxy(pyridin-2-yl)methyl)-5-(4-methyloxazol-5-yl)-[1,2,4]triazolo[1,5-a]pyrazin-6-yl)benzonitrile]
- Ki (Adenosine A2A; [2]): < 10 nM
- EC50 ([1]; A2B_cAMP_EC50 (nM)): < 10 nM

SMILES: Cn1nc(-c2c(-c3cccc(C#N)c3)nc(N)c3nc(Cc4ccccn4)nn23)ccc1=O [Example 29, 3-(8-Amino-5-(1-methyl-6-oxo-1,6-dihydropyridazin-3-yl)-2-(pyridin-2-ylmethyl)-[1,2,4]triazolo[1,5-a]pyrazin-6-yl)benzonitrile]
- Ki (Adenosine A2A): < 10 nM
- EC50 ([1]; A2B_cAMP_EC50 (nM)): < 10 nM

SMILES: Cn1cnc(S(=O)(=O)N2CCCC2Cc2nc3c(N)nc(-c4cccc(C#N)c4F)cn3n2)c1 (stereo not shown) [Example 90, 3-(8-amino-2-((1-((1-methyl-1H-imidazol-4-yl)sulfonyl)pyrrolidin-2-yl)methyl)-[1,2,4]triazolo[1,5-a]pyrazin-6-yl)-2-fluorobenzonitrile]
- Ki (Adenosine A2A; [2]): < 10 nM
- EC50 ([1]; A2B_cAMP_EC50 (nM)): 100 to 1000 nM

SMILES: CN(C)Cc1cccc(F)c1C(O)c1nc2c(N)nc(-c3cccc(C#N)c3)c(-c3ccncn3)n2n1 (single isomer, unassigned) [Example 100, 3-(8-amino-2-((2-((dimethylamino)methyl)-6-fluorophenyl)(hydroxy)methyl)-5-(pyrimidin-4-yl)-[1,2,4]triazol[1,5-a]pyrazin-6-yl)benzonitrile]
- Ki (Adenosine A2A): < 10 nM
- EC50 ([1]; A2B_cAMP_EC50 (nM)): 100 to 1000 nM

SMILES: Cc1cnccc1-c1c(-c2cccc(C#N)c2)nc(N)c2nc(Cc3ccccn3)nn12 [Example 44, 3-(8-Amino-5-(3-methylpyridin-4-yl)-2-(pyridin-2-ylmethyl)-[1,2,4]triazolo[1,5-a]pyrazin-6-yl)benzonitrile]
- Ki (Adenosine A2A; [2]): < 10 nM
- EC50 ([1]; A2B_cAMP_EC50 (nM)): < 10 nM

SMILES: N#Cc1cccc(-c2nc(N)c3nc(C(O)c4c(F)cccc4CN4CCCC4)nn3c2-c2ccncn2)c1 (single isomer, unassigned) [Example 111, 3-(8-amino-2-((2-fluoro-6-(pyrrolidin-1-ylmethyl)phenyl)(hydroxy)methyl)-5-(pyrimidin-4-yl)-[1,2,4]triazolo[1,5-a]pyrazin-6-yl)benzonitrile]
- Ki (Adenosine A2A; [3]): < 10 nM
- EC50 ([1]; A2B_cAMP_EC50 (nM)): < 10 nM

SMILES: CCNC(=O)c1cc2c(N)nc(-c3cccc(C#N)c3)c(C(C)(F)F)n2n1 [Example 5, 4-Amino-6-(3-cyanophenyl)-7-(1,1-difluoroethyl)-N-ethylpyrazolo[1,5-a]pyrazine-2-carboxamide]
- Ki (Adenosine A2A; [2]): < 10 nM
- EC50 ([1]; A2B_cAMP_EC50 (nM)): 100 to 1000 nM
